Structures are written as SMILES. Like-named read-outs stand apart in the source and are kept apart here.

For one assay, the target named is T1, human cathepsin L (Homo sapiens, UniProt P07711).
T1 construct: purchased R&D Systems
The assay can be described thus: Cathepsin L assay (Z-FR-AMC fluorescence). The settings on record: 10 pM human cathepsin L, 30 mins preincubation, Z-FR-AMC 2 μM. Type of assay: biochemical. In short, it runs like this: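 Human cathepsin L (10 pM) was preincubated 30 min with compound, then reactions were started with Z-FR-AMC substrate (2 μM final). AMC fluorescence (355/460 nm) was read every 2 min over 30 min. IC50 came from a four-parameter curve fit.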

The test system of assay [1] is B.1.1.7 lineage SARS-CoV-2. The assay can be described thus: microbe, parasite or virus in culture. Type of assay: cell-based. Conditions: Severe acute respiratory syndrome coronavirus 2, 96 h; read-out: A549-dual_ACE2_TMPRSS2 (EC50).
For assay [2], the system named is SARS-CoV-2-GHB-03021/2020. In kind it is cell-based. Conditions: read-out: VeroE6 + CP (EC50).
In assay [3] the test system is human beta-coronavirus OC43. The assay can be described thus: OC43 coronavirus antiviral assay in HeLa cells (cytopathic effect, cell-titer-glo). In kind it is cell-based. The settings on record: Betacoronavirus 1, OC43, HeLa, 144 h, 6 days at 33° C., read-out: EC50 (class). A general note: Damage to the host cells serves as the signal in cytopathic effect assays.
In a further assay the target is T2, HRV3C (Human rhinovirus 14, UniProt P03303).
T2 construct: 3CLpro and HRV3C was added using a Multidrop Combi
T2 sequence (P03303 1538-1719): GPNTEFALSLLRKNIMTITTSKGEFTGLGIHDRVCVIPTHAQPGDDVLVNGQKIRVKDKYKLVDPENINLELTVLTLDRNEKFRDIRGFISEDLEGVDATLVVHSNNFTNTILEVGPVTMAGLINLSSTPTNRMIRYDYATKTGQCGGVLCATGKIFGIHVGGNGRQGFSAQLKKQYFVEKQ
The assay can be described thus: biochemical. Conditions: HRV3C, 30 mins preincubation, SAMDI-MS. On the set-up: species or system HRV.

The target of the next assay is T3, SARS-Cov-2 3CLpro (Severe acute respiratory syndrome coronavirus 2, UniProt P0DTD1).
T3 construct: 3CLpro and HRV3C was added using a Multidrop Combi
The assay can be described thus: biochemical. Conditions: 3CLpro, 30 mins preincubation, SAMDI-MS; read-out: SARS-Cov-2 IC50 (class).

T1 sequence (P07711 114-333): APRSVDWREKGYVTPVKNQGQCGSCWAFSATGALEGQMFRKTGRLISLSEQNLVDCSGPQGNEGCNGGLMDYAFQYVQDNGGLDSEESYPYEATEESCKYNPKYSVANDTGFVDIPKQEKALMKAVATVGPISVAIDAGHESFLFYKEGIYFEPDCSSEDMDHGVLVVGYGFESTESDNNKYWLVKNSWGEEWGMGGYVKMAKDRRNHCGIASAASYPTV

The term IC50 denotes the concentration at which inhibition is half-maximal. The term EC50 denotes the concentration at which the effect is half-maximal. For the compound `CC(C)(C)[C@H](NC(=O)C(F)(F)F)C(=O)N1C[C@H]2[C@@H]([C@H]1C(=O)N[C@H](C#N)CC1Cn3nccc3NC1=O)[C@H]1C=C[C@@H]2C1` (stereo partly drawn) [Example 9, (1S,3aR,4S,7R,7aS)—N-((1S)-1-cyano-2-(5-oxo-4,5,6,7-tetrahydropyrazolo[1,5-a]pyrimidin-6-yl)ethyl)-2-((S)-3,3-dimethyl-2-(2,2,2-trifluoroacetamido)butanoyl)-2,3,3a,4,7,7a-hexahydro-1H-4,7-methanoisoindole-1-carboxamide], the values for the IC50 against human cathepsin L, at HRV3C (read-out: HRV IC50 (bound)) and on SARS-Cov-2 3CLpro were ≥ 10000 nM, > 10000 nM and < 20 nM, respectively. Further, the EC50 in assay [1] was 100 to 1000 nM; in assay [2] it was < 100 nM; in assay [3], < 100 nM.
Take `CC(C)(C)[C@H](NC(=O)C1COC1)C(=O)N1C[C@H]2[C@@H]([C@H]1C(=O)N[C@H](C#N)C[C@@H]1CCNC1=O)[C@H]1C=C[C@@H]2C1` [Example 36, (1R,2S,3S,6R,7S)—N-[(1S)-1-cyano-2-[(3S)-2-oxopyrrolidin-3-yl]ethyl]-4-[(2S)-3,3-dimethyl-2-(oxetan-3-ylformamido)butanoyl]-4-azatricyclo[5.2.1.0^{2,6}]dec-8-ene-3-carboxamide]: the IC50 on human cathepsin L was ≥ 10000 nM; at HRV3C (read-out: HRV IC50 (bound)), > 10000 nM; on SARS-Cov-2 3CLpro, < 20 nM. Also, the EC50 in assay [1] lay in the range of 1000 to 10000 nM; in assay [2] it was 100 to 1000 nM; in assay [3], 100 to 1000 nM.
As for `O=C(NC1CC1)C(=O)C(C[C@@H]1CCNC1=O)NC(=O)[C@@H]1[C@@H]2[C@H](CN1C(=O)[C@@H]1C[C@]13CCCc1ccccc13)[C@@H]1C=C[C@H]2C1` (stereo partly drawn) [Example 11, (1S,3aR,4S,7R,7aS)—N-(4-(cyclopropylamino)-3,4-dioxo-1-((S)-2-oxopyrrolidin-3-yl)butan-2-yl)-2-((1R,2R)-3′,4′-dihydro-2′H-spiro[cyclopropane-1,1′-naphthalene]-2-carbonyl)-2,3,3a,4,7,7a-hexahydro-1H-4,7-methanoisoindole-1-carboxamide], the IC50 was ≥ 10000 nM at human cathepsin L, 200 to 2000 nM at HRV3C (read-out: HRV IC50 (class)) and < 20 nM at SARS-Cov-2 3CLpro. The EC50 in assay [1], in assay [2] and in assay [3] was 100 to 1000 nM in each case.
Take `CC(C)(C)C(C(=O)N1C[C@H]2[C@@H]([C@H]1C(=O)N[C@H](C#N)C[C@@H]1CCNC1=O)[C@H]1C=C[C@@H]2C1)n1cc(C(F)(F)F)nn1` (stereo partly drawn) [Compound 42, (1S,3aR,4S,7R,7aS)-N-((S)-1-cyano-2-((S)-2-oxopyrrolidin-3-yl)ethyl)-2-(3,3-dimethyl-2-(4-(trifluoromethyl)-1H-1,2,3-triazol-1-yl)butanoyl)-2,3,3a,4,7,7a-hexahydro-1H-4,7-methanoisoindole-1-carboxamide]: the IC50 is ≥ 10000 nM against human cathepsin L, > 10000 nM at HRV3C (read-out: HRV IC50 (bound)) and 20 to 200 nM at SARS-Cov-2 3CLpro. Moreover, the EC50 in assay [1], in assay [2] and in assay [3] was 100 to 1000 nM each time.
As to `CC(C)(C)[C@H](NC(=O)C(F)(F)F)C(=O)N1C[C@H]2[C@@H]([C@H]1C(=O)N[C@H](C#N)C[C@@H]1CCNC1=O)[C@H]1C=C[C@@H]2C1` [Example 1, (1S,3aR,4S,7R,7aS)-N-((S)-1-cyano-2-((S)-2-oxopyrrolidin-3-yl)ethyl)-2-((S)-3,3-dimethyl-2-(2,2,2-trifluoroacetamido)butanoyl)-2,3,3a,4,7,7a-hexahydro-1H-4,7-methanoisoindole-1-carboxamide], the values for the IC50 at human cathepsin L, on HRV3C (read-out: HRV IC50 (bound)) and on SARS-Cov-2 3CLpro were ≥ 10000 nM, > 10000 nM and < 20 nM, respectively. In addition, the EC50 in assay [1], in assay [2] and in assay [3] was < 100 nM throughout.

Values taken from patent US12252481B2, “Anti-viral compounds” (Aligos Therapeutics, Inc., priority 2021, dated 2025).
